Earlier results as cited in patent US20040180103A1, “Use of plants of the genus hypericum for facilitating the synchronization of a circadian rhythm” (priority 2001, published 2004).

Test system: circadian rhythms in Siberian hamsters
Conditions: 5 h phase shift under daily administration

COc1ccc2[nH]cc(CCNC(C)=O)c2c1 [melatonin]
share of animals that adapt to the new light-dark cycle: 71%
